Source: article PMC4357444, “Accumulation of Squalene in a Microalga Chlamydomonas reinhardtii by Genetic Modification of Squalene Synthase and Squalene Epoxidase Genes” (PLoS ONE, 2015)

Molecular target: T1, CrSQS (Chlamydomonas reinhardtii, UniProt A0A2K3DXC5)
T1 construct: gene CHLRE_03g175250v5; Met-1 to Asp-397, C-terminal 64 residues (transmembrane region) removed; C-terminal 6xHis (pET-21b), E. coli BL21(DE3), TALON purified, 46 kDa
Experiment: radiolabel TLC assay of squalene formation
Type: biochemical
Conditions: 25 uM (1-14C) FPP, 2.5 mM NADPH, 5 mM MgCl2 or 2 mM MnCl2, pH 7.4, 30 °C; labelled compound; 2.5 mM NADPH (with glucose-6-phosphate dehydrogenase regeneration) against no NADPH

T1 sequence (A0A2K3DXC5 entry or part of it): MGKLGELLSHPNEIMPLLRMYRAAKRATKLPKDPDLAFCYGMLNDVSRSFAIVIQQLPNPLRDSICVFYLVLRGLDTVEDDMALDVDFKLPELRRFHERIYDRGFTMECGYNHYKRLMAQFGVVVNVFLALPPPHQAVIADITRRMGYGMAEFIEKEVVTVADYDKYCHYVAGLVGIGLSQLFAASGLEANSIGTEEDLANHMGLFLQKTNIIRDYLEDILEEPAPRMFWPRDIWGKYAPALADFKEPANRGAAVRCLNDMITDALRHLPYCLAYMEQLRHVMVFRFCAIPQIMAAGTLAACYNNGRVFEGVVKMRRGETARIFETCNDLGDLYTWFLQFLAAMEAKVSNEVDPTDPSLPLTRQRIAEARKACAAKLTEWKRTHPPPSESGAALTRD

NC(=O)C1=CN([C@@H]2O[C@H](COP(=O)(O)OP(=O)(O)OC[C@H]3O[C@@H](n4cnc5c(N)ncnc54)[C@H](OP(=O)(O)O)[C@@H]3O)[C@@H](O)[C@H]2O)C=CC1 [NADPH]
radiolabel TLC assay of squalene formation: When NADPH was removed, radiolabeled squalene was not detected in any sample
